Source: PMC11524583, “Neurons enhance blood–brain barrier function via upregulating claudin-5 and VE-cadherin expression due to glial cell line-derived neurotrophic factor secretion” (eLife, 2024)
“And” between values parts separate entries of the source, which are not always exact repeats. Equal entries are not always repeated. Where two headings read alike, the source gives them in different places.

Tests used:
[1] = system: double co-culture BBB model (hCMEC/D3 and U251 cells); experiment: In vitro BBB permeability study (Papp), double co-culture with U251 cells (h+U); format: in vitro ADME, Homo sapiens; settings: group h+U, Figure 1D/1E; single biological replicate; listed as NaF
[2] = as above; format: in vitro ADME, Homo sapiens; settings: human, group h+U, Figure 1D/1E
[3] = system: hCMEC/D3 mono-culture BBB model; experiment: In vitro BBB permeability study (Papp), hCMEC/D3 mono-culture BBB model
[4] = as above; settings: human
[5] = system: triple co-culture BBB model (hCMEC/D3, U251 and SH-SY5Y cells); experiment: In vitro BBB permeability study (Papp), triple co-culture BBB model
[6] = as above; settings: human
[7] = system: double co-culture BBB model (hCMEC/D3 and SH-SY5Y cells); experiment: In vitro BBB permeability study (Papp), double co-culture with SH-SY5Y cells (h+S); format: in vitro ADME, Homo sapiens; settings: group h+S, Figure 1D/1E; single biological replicate; listed as NaF
[8] = as above; format: in vitro ADME, Homo sapiens; settings: human, group h+S, Figure 1D/1E
[9] = Permeability (Papp) across the blank inserts; format: in vitro ADME; settings: blank inserts (no cells), Figure 1F; for Papp at 30 min: not told
Protocol: Therefore, the subsequent experiments were all completed on day 6. The culture medium was removed from the apical and basolateral sides of the inserts and washed twice with preheated Hank’s balanced salt solution (HBSS). Fresh HBSS was then added to both the apical and basolateral chambers. […] Next, 200 μl aliquots were collected from the basolateral chamber after 30 min of incubation at 37°C. The concentrations of the tested agents in the basolateral chamber were measured.
The apparent permeability coefficient (Papp, cm/s) values of the tested agents across the in vitro BBB model were calculated using the equation ([Tavelin et al., 2002]):(1) Papp=(Q/1800)/(S×C0)
where S is the surface area of the insert membrane (0.33 cm^2 for 6.5 mm inserts, 4.46 cm^2 for 24 mm inserts), Q is the transported amount of the tested agents transported from the donor chamber to the receiver chamber for 30 min (1800 s), and C0 is the initial concentration of the tested agents in the donor chamber.

[10] = BBB permeability in brain-specific Gdnf knockdown mice (brain distribution of fluorescein and FITC-Dex); settings: Gdnf silencing (shGdnf) vs shNC mice; i.v., 30 min
U251 cells monolayer = experiment: Permeability (Papp) across U251 mono-culture model; format: in vitro ADME, Homo sapiens; settings: group U251 mono-culture, Figure 1F; single replicate
[11] = Permeability (Papp) across U251 mono-culture model; format: in vitro ADME, Homo sapiens; settings: human, group U251 mono-culture, Figure 1F
[12] = mean of four replicates, read-out: Papp Mean
[13] = single biological replicate, read-out: Papp
[14] = single replicate, read-out: Papp

Papp A→B [1]: 30.2 ×10⁻⁶ cm/s and 29.6 ×10⁻⁶ cm/s and 28.1 ×10⁻⁶ cm/s | Papp A→B at 30 min [2, 12]: 29.1 ×10⁻⁶ cm/s | Papp A→B at 30 min [2, 13]: 28.2 ×10⁻⁶ cm/s | Papp A→B ([3]; read-out: Papp(cm/s), Figure 2N, group GDNF+SPP, individual replicates): 22 ×10⁻⁶ cm/s and 26.7 ×10⁻⁶ cm/s | Papp A→B ([3]; read-out: Papp(cm/s), Figure 2N, group GDNF, individual replicates): 17.7 ×10⁻⁶ cm/s and 20.6 ×10⁻⁶ cm/s and 18.3 ×10⁻⁶ cm/s | Papp A→B ([3]; read-out: Papp(cm/s), Figure 2N, group Mono, individual replicates): 24.3 ×10⁻⁶ cm/s and 25.1 ×10⁻⁶ cm/s and 23.7 ×10⁻⁶ cm/s | Papp A→B ([3]; read-out: Papp(cm/s), Figure 2P, group GDNF+PP2, individual replicates): 28.3 ×10⁻⁶ cm/s | Papp A→B ([3]; read-out: Papp(cm/s), Figure 2P, group GDNF, individual replicates): 23.3 ×10⁻⁶ cm/s (2×) and 23.8 ×10⁻⁶ cm/s | Papp A→B ([3]; read-out: Papp(cm/s), Figure 2P, group Mono, individual replicates): 30.5 ×10⁻⁶ cm/s and 31.5 ×10⁻⁶ cm/s and 30.3 ×10⁻⁶ cm/s | Papp A→B ([3]; read-out: Papp(cm/s), group h, Figure 1D/1E, single biological replicate, listed as NaF): 32 ×10⁻⁶ cm/s and 32.7 ×10⁻⁶ cm/s and 32.5 ×10⁻⁶ cm/s | Papp A→B ([3]; read-out: Papp(cm/s), group hCEMC/D3 mono-culture, Figure 1F, single replicate): 35.9 ×10⁻⁶ cm/s and 34.8 ×10⁻⁶ cm/s and 36 ×10⁻⁶ cm/s | Papp A→B ([3]; read-out: Papp, Mono group, single replicates, Figure 2R): 31.7 ×10⁻⁶ cm/s and 33.3 ×10⁻⁶ cm/s and 31.4 ×10⁻⁶ cm/s | Papp A→B ([3]; read-out: Papp, Mono group, single replicates, Figure 2T): 29.5 ×10⁻⁶ cm/s and 30.3 ×10⁻⁶ cm/s | Papp A→B at 30 min ([4]; Papp Mean, Mono group, mean of 4, Figure 2R): 31.8 ×10⁻⁶ cm/s | Papp A→B at 30 min ([4]; Papp Mean, Mono group, mean of 4, Figure 2T): 30.4 ×10⁻⁶ cm/s | Papp A→B at 30 min ([4]; Papp Mean, group h, Figure 1D/1E, mean of four replicates): 32.2 ×10⁻⁶ cm/s | Papp A→B at 30 min ([4]; Papp Mean, group hCEMC/D3 mono-culture, Figure 1F, mean of four replicates): 35.7 ×10⁻⁶ cm/s | Papp A→B at 30 min ([4]; Papp(cm/s) Mean, Figure 2N, group GDNF+SPP, group mean): 24.5 ×10⁻⁶ cm/s | Papp A→B at 30 min ([4]; Papp(cm/s) Mean, Figure 2N, group GDNF, group mean): 19 ×10⁻⁶ cm/s | Papp A→B at 30 min ([4]; Papp(cm/s) Mean, Figure 2N, group Mono, group mean): 23.8 ×10⁻⁶ cm/s | Papp A→B at 30 min ([4]; Papp(cm/s) Mean, Figure 2P, group GDNF+PP2, group mean): 28.2 ×10⁻⁶ cm/s | Papp A→B at 30 min ([4]; Papp(cm/s) Mean, Figure 2P, group GDNF, group mean): 23.5 ×10⁻⁶ cm/s | Papp A→B at 30 min ([4]; Papp(cm/s) Mean, Figure 2P, group Mono, group mean): 30.8 ×10⁻⁶ cm/s | Papp A→B at 30 min ([4]; Papp(cm/s), Figure 2N, group GDNF+SPP, individual replicates): 26.5 ×10⁻⁶ cm/s | Papp A→B at 30 min ([4]; Papp(cm/s), Figure 2N, group GDNF, individual replicates): 19.4 ×10⁻⁶ cm/s | Papp A→B at 30 min ([4]; Papp(cm/s), Figure 2N, group Mono, individual replicates): 21.9 ×10⁻⁶ cm/s | Papp A→B at 30 min ([4]; Papp(cm/s), Figure 2P, group GDNF+PP2, individual replicates): 27.5 ×10⁻⁶ cm/s | Papp A→B at 30 min ([4]; Papp(cm/s), Figure 2P, group GDNF, individual replicates): 23.6 ×10⁻⁶ cm/s | Papp A→B at 30 min ([4]; Papp(cm/s), Figure 2P, group Mono, individual replicates): 31 ×10⁻⁶ cm/s | Papp A→B at 30 min ([4]; Papp(cm/s), group h, Figure 1D/1E, single biological replicate): 31.7 ×10⁻⁶ cm/s | Papp A→B at 30 min ([4]; Papp(cm/s), group hCEMC/D3 mono-culture, Figure 1F, single replicate): 36.2 ×10⁻⁶ cm/s | Papp A→B at 30 min ([4]; Papp, Mono group, single replicates, Figure 2R): 30.7 ×10⁻⁶ cm/s | Papp A→B at 30 min ([4]; Papp, Mono group, single replicates, Figure 2T): 30.8 ×10⁻⁶ cm/s | Papp A→B ([5]; read-out: Papp(cm/s), group h+S+U, Figure 1D/1E, single biological replicate, listed as NaF): 26.4 ×10⁻⁶ cm/s and 23.5 ×10⁻⁶ cm/s and 23.6 ×10⁻⁶ cm/s | Papp A→B ([5]; read-out: Papp, Triple group, single replicates, Figure 2R): 24.7 ×10⁻⁶ cm/s and 24.9 ×10⁻⁶ cm/s and 25 ×10⁻⁶ cm/s | Papp A→B ([5]; read-out: Papp, Triple group, single replicates, Figure 2T): 20.2 ×10⁻⁶ cm/s and 20.5 ×10⁻⁶ cm/s and 19.8 ×10⁻⁶ cm/s | Papp A→B ([5]; read-out: Papp, Triple+PP2 group, single replicates, Figure 2T): 26.4 ×10⁻⁶ cm/s | Papp A→B ([5]; read-out: Papp, Triple+SPP group, single replicates, Figure 2R): 29.1 ×10⁻⁶ cm/s and 30.2 ×10⁻⁶ cm/s | Papp A→B at 30 min ([6]; Papp Mean, Triple group, mean of 4, Figure 2R): 25 ×10⁻⁶ cm/s | Papp A→B at 30 min ([6]; Papp Mean, Triple group, mean of 4, Figure 2T): 20.5 ×10⁻⁶ cm/s | Papp A→B at 30 min ([6]; Papp Mean, Triple+PP2 group, mean of 4, Figure 2T): 27.5 ×10⁻⁶ cm/s | Papp A→B at 30 min ([6]; Papp Mean, Triple+SPP group, mean of 4, Figure 2R): 30 ×10⁻⁶ cm/s | Papp A→B at 30 min ([6]; Papp Mean, group h+S+U, Figure 1D/1E, mean of four replicates): 24.9 ×10⁻⁶ cm/s | Papp A→B at 30 min ([6]; Papp(cm/s), group h+S+U, Figure 1D/1E, single biological replicate): 26.1 ×10⁻⁶ cm/s | Papp A→B at 30 min ([6]; Papp, Triple group, single replicates, Figure 2R): 25.3 ×10⁻⁶ cm/s | Papp A→B at 30 min ([6]; Papp, Triple group, single replicates, Figure 2T): 21.5 ×10⁻⁶ cm/s | Papp A→B at 30 min ([6]; Papp, Triple+PP2 group, single replicates, Figure 2T): 28.2 ×10⁻⁶ cm/s | Papp A→B at 30 min ([6]; Papp, Triple+SPP group, single replicates, Figure 2R): 30.6 ×10⁻⁶ cm/s | Papp A→B [7]: 29.1 ×10⁻⁶ cm/s and 23.2 ×10⁻⁶ cm/s and 29.5 ×10⁻⁶ cm/s | Papp A→B at 30 min [8, 12]: 27.8 ×10⁻⁶ cm/s | Papp A→B at 30 min [8, 13]: 29.4 ×10⁻⁶ cm/s | Papp at 30 min [9, 12]: 71.6 ×10⁻⁶ cm/s | Papp at 30 min [9, 14]: 68.7 ×10⁻⁶ cm/s | brain-to-plasma concentration ratios [10]: notable increases | Papp A→B (U251 cells monolayer): 30.6 ×10⁻⁶ cm/s and 31.9 ×10⁻⁶ cm/s and 30.2 ×10⁻⁶ cm/s | Papp A→B at 30 min [11, 12]: 30.6 ×10⁻⁶ cm/s | Papp A→B at 30 min [11, 14]: 29.5 ×10⁻⁶ cm/s
Compound: O=C1OC2(c3ccc(O)cc3Oc3cc(O)ccc32)c2ccccc21 [fluorescein, fluorescein sodium]
Papp ([9]; single replicate): 72.71 ×10⁻⁶ cm/s and 72.14 ×10⁻⁶ cm/s and 72.59 ×10⁻⁶ cm/s
